Data on 1 compound can be found in patent US4859773A, “Preparation of 1,8-bridged 4-quinoline-3-carboxylic acids” (Bayer Aktiengesellschaft, priority 1985, dated 1989).

Test in all cases: MIC, agar dilution test (Isosensitest medium), Denley multipoint inoculator
What all share (type): cell-based

For one assay, the system named is E. coli A 261. To be noted: Escherichia coli, A261. The text has this: (§1) Agar dilution test (Isosensitest medium)
(§2) Denley multipoint inoculator

Another assay concerns E. coli Neumann. To be noted: Escherichia coli.
Text: as §1, §2

For the next assay, the system named is E. coli T 7. The note with it: Escherichia coli, T7.
Text: as §1, §2

In another assay the test system is Klebsiella 8085.
Text: as §1, §2

Converted amounts (≈) assume the structure as drawn.

With `Cc1c(F)cc2c(=O)c(C(=O)O)cn3c2c1OCC3` [Example 61], the MIC against E. coli A 261 is 0.5 µg/mL (≈ 1.9 µM); in the assay on E. coli Neumann it was 0.125 µg/mL (≈ 0.475 µM); in the assay on E. coli T 7 it was 0.5 µg/mL (≈ 1.9 µM); against Klebsiella 8085, 0.125 µg/mL (≈ 0.475 µM).
